Assay results taken from patent US20220386609A1, “META-DIAMIDE INSECTICIDES” (FMC Corporation, priority 2019, published 2022).

Experiments:
[1] = test system: potato leafhopper (Empoasca fabae (Harris)); test: Test D: control of potato leafhopper through contact and/or systemic means; assay type: in vivo; conditions: 144 h, Soleil bean plant, adults, 6 days; for mortality at 250 ppm: tested at 250 ppm; for mortality at 50 ppm: tested at 50 ppm
Description: (§1) Test compounds were formulated using a solution containing 10% acetone, 90% water and 300 ppm Activator 90® non-ionic surfactant (Loveland Products, Loveland, Colo., USA). The formulated compounds were applied in 1 mL of liquid through an atomizer nozzle positioned 1.27 cm (0.5 inches) above the top of each test unit. Test compounds were sprayed at the rates indicated, and each test was replicated three times.
For evaluating control of potato leafhopper (Empoasca fabae (Harris)) through contact and/or systemic means, the test unit consisted of a small open container with a 5-6-day-old Soleil bean plant (primary leaves emerged) inside. White sand was added to the top of the soil, and one of the primary leaves was excised prior to application of the test compound.
Test compounds were formulated and sprayed at 250 and/or 50 ppm. After spraying of the formulated test compound, the test units were allowed to dry for 1 hour before they were post-infested with 5 potato leafhoppers (18-to-21-day-old adults). A black, screened cap was placed on the top of the test unit, and the test units were held for 6 days in a growth chamber at 20° C. and 70% relative humidity. Each test unit was then visually assessed for insect mortality.

[2] = test system: cotton melon aphid (Aphis gossypii (Glover)); test: Test F: control of cotton melon aphid through contact and/or systemic means; assay type: in vivo; conditions: 144 h, tested at 250 ppm, okra plant, 6 days
Description: as §1
[…] This was pre-infested with 30-40 insects on a piece of leaf according to the cut-leaf method, and the soil of the test unit was covered with a layer of sand.
Test compounds were formulated and sprayed at 250 and/or 50 ppm. After spraying, the test units were maintained in a growth chamber for 6 days at 19° C. and 70% relative humidity. Each test unit was then visually assessed for insect mortality.

| SMILES | mortality at 250 ppm [1] [%] | mortality at 50 ppm [1] [%] | mortality at 250 ppm [2] [%] | melting point [°C] |
| --- | --- | --- | --- | --- |
| O=C(CC(c1ccc(Cl)c(Cl)c1)C(F)(F)F)Nc1ccc(Cl)c(C(=O)Nc2ccc(F)cc2)c1 (stereo not drawn) [Compound 1, 3,4-dichloro-N-[4-chloro-3-[[(4-fluorophenyl)amino]carbonyl]phenyl]-β-(trifluoro-methyl)benzenepropanamide] | ≥ 80 | – | – | – |
| O=C(CC(c1ccc(Cl)c(Cl)c1)C(F)(F)F)Nc1ccc(Cl)c(C(=O)Nc2ccc(F)cc2F)c1 (stereo not drawn) [Compound 52, 3,4-dichloro-N-[4-chloro-3-[[(2,4-difluorophenyl)amino]carbonyl]phenyl]-β-(trifluoro-methyl)benzenepropanamide] | ≥ 80 | ≥ 80 | ≥ 80 | – |
| O=C(CC(c1cc(Cl)cc(Cl)c1)C(F)(F)F)Nc1ccc(Cl)c(C(=O)Nc2ccc(F)cc2F)c1 (stereo not drawn) [Compound 60, 3,5-dichloro-N-[4-chloro-3-[[(2,4-difluorophenyl)amino]carbonyl]phenyl]-β-(trifluoro-methyl)benzenepropanamide] | ≥ 80 | ≥ 80 | – | – |
| O=C(CC(c1cccc(C(F)(F)F)c1)C(F)(F)F)Nc1ccc(Cl)c(C(=O)Nc2ccc(F)cc2F)c1 (stereo not drawn) [Compound 5, N-[4-chloro-3-[[(2,4-difluorophenyl)amino]carbonyl]phenyl]-β,3-bis(trifluoromethyl)benzenepropanamide] | ≥ 80 | – | – | – |
| O=C(CC(c1ccc(F)c(Cl)c1)C(F)(F)F)Nc1ccc(Cl)c(C(=O)Nc2ccc(F)cc2F)c1 (stereo not drawn) [Compound 115, 3-chloro-N-[4-chloro-3-[[(2,4-difluorophenyl)amino]carbonyl]phenyl]-4-fluoro-β-(trifluoromethyl)benzenepropanamide] | – | ≥ 80 | – | – |
| O=C(C[C@H](c1cccc(C(F)(F)F)c1)C(F)(F)F)Nc1ccc(Cl)c(C(=O)Nc2ccc(F)cc2F)c1 [Compound 103, (βR)—N-[4-chloro-3-[[(2,4-difluorophenyl)amino]carbonyl]phenyl]-β,3-bis(trisfluoromethyl)benzenepropanamide] | – | ≥ 80 | – | – |
| O=C(CC(c1cccc(C(F)(F)F)c1)C(F)(F)F)Nc1ccc(Cl)c(C(=O)NCc2ccc(F)cc2F)c1 (stereo not drawn) [Compound 148, N-[4-chloro-3-[[(2,4-difluorophenyl)methylamino]carbonyl]phenyl]-β,3-bis(trifluoromethyl)benzenepropanamide] | – | – | – | 96 to 99 |
